Experimental data as given in ChEMBL document CHEMBL4507297, “Data for DCP probe PF-04457845” (2021).

Experiments:
[1] = biological target: T1, Alpha-2A adrenergic receptor (Homo sapiens) (UniProt P08913); assay: alpha2A (h) CEREP ligand profiling; conditions: Compound concentration 10.0 uM
T1 sequence (whole entry): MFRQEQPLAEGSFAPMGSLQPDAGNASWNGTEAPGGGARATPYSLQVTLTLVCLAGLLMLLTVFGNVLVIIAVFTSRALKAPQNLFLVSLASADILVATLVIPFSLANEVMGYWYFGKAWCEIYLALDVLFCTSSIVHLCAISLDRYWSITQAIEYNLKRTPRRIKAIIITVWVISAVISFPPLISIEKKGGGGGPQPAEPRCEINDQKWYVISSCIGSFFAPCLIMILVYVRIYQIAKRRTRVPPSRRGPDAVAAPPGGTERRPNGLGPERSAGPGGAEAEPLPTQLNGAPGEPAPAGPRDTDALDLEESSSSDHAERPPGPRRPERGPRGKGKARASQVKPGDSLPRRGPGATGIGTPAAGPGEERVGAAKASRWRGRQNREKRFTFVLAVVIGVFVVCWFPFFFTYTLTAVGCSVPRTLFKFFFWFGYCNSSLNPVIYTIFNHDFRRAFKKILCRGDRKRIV

Cannabinoid receptor 1 = Cannabinoid receptor 1 (Homo sapiens, UniProt P21554); assay: CB1 (h) CEREP ligand profiling
[2] = biological target: Cholecystokinin receptor type A (Homo sapiens) (UniProt P32238); assay: CCKA (h) (CCK1) CEREP ligand profiling; conditions: Compound concentration 10.0 uM
[3] = biological target: T2, Muscarinic acetylcholine receptor M1 (Homo sapiens) (UniProt P11229); assay: M1 (h) CEREP ligand profiling; conditions: Compound concentration 10.0 uM
T2 sequence (whole entry): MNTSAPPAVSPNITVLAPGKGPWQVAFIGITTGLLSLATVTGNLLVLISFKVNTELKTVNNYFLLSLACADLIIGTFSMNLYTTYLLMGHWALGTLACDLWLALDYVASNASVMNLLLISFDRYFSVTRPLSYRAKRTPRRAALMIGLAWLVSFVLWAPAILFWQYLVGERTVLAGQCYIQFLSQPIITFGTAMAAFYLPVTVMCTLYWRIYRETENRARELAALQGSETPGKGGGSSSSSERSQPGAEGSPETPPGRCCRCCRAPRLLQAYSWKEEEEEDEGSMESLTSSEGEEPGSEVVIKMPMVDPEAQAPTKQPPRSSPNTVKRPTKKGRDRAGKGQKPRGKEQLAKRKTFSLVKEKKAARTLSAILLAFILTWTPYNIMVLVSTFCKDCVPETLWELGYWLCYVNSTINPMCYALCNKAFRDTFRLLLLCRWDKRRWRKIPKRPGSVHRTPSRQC

[4] = biological target: T3, Muscarinic acetylcholine receptor M2 (Homo sapiens) (UniProt P08172); assay: M2 (h) CEREP ligand profiling; conditions: Compound concentration 10.0 uM
T3 sequence (whole entry): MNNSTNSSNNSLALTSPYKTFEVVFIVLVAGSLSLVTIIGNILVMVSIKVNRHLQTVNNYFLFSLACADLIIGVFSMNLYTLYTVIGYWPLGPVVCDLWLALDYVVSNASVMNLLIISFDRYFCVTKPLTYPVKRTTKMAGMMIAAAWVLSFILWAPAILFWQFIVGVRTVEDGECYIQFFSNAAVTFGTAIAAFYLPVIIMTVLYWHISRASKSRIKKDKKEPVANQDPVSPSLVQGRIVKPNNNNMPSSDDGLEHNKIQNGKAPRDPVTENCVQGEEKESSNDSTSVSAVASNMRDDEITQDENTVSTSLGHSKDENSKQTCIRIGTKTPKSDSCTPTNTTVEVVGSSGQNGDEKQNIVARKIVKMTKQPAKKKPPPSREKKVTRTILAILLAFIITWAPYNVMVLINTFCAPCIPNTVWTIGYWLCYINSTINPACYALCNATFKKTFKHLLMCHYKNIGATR

[5] = biological target: Kappa-type opioid receptor (Homo sapiens) (UniProt P41145); assay: kappa (KOP) CEREP ligand profiling; conditions: Compound concentration 10.0 uM
[6] = biological target: 5-hydroxytryptamine receptor 2A (Homo sapiens, UniProt P28223); assay: 5-HT2A (h) (agonist site) CEREP ligand profiling
[7] = biological target: T4, 5-hydroxytryptamine receptor 3A (Homo sapiens) (UniProt P46098); assay: 5-HT3 (h) CEREP ligand profiling; conditions: Compound concentration 10.0 uM
T4 sequence (whole entry): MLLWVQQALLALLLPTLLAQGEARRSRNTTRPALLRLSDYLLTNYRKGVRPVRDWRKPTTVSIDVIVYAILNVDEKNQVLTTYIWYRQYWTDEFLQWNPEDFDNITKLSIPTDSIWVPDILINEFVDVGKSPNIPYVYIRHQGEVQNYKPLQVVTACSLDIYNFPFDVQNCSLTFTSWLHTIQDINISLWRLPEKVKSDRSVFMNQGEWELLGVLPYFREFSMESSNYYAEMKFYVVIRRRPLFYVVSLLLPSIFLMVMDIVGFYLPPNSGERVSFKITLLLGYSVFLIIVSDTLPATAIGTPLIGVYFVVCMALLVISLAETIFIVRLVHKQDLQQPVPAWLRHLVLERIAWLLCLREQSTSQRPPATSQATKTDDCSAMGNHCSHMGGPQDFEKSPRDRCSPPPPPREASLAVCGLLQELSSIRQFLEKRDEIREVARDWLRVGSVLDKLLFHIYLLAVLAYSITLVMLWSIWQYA

[8] = biological target: Ca2+ channel (L, DHP site); voltage-gated L-type calcium channel (Homo sapiens, UniProt O60840+Q01668+Q13698+Q13936); assay: Ca2+ channel (L, DHP site) CEREP ligand profiling; format: protein assay; conditions: compound concentration 10 uM
[9] = biological target: Ca2+ channel (L, diltiazem site) (benzothiazepines); voltage-gated L-type calcium channel (Homo sapiens, UniProt O60840+Q01668+Q13698+Q13936); assay: Ca2+ channel (L, diltiazem site) (benzothiazepines) CEREP ligand profiling; format: protein assay; conditions: compound concentration 10 uM
[10] = biological target: Sodium-dependent noradrenaline transporter (Homo sapiens) (UniProt P23975); assay: NE transporter (h) CEREP ligand profiling; conditions: Compound concentration 10.0 uM
[11] = biological target: Sodium- and chloride-dependent GABA transporter 1 (Homo sapiens) (UniProt P30531); assay: GABA transporter CEREP ligand profiling; conditions: Compound concentration 10.0 uM
[12] = biological target: Vascular endothelial growth factor receptor 1 (Homo sapiens) (UniProt P17948); assay: FLT-1 (h) (VEGFR1) CEREP ligand profiling; conditions: Compound concentration 10.0 uM
[13] = biological target: Acetylcholinesterase (Homo sapiens) (UniProt P22303); assay: Acetylcholinesterase (h) CEREP ligand profiling; conditions: Compound concentration 10.0 uM
[14] = biological target: Delta-type opioid receptor (Homo sapiens) (UniProt P41143); conditions: Compound concentration 10.0 uM
[15] = biological target: Histamine H4 receptor (Homo sapiens) (UniProt Q9H3N8); conditions: Compound concentration 10.0 uM
[16] = biological target: Alpha-2B adrenergic receptor (Homo sapiens) (UniProt P18089); conditions: Compound concentration 10.0 uM
[17] = biological target: GABA-A receptor; anion channel (Rattus norvegicus) (UniProt O09028+P15431+P18506+P18508+P19969+P20236+P23574+P23576+P28471+P28473+P30191+P62813+P63079+P63138+Q91ZM7+Q9ES14); conditions: Compound concentration 10.0 uM

Sequence of Cannabinoid receptor 1 (P21554 whole entry): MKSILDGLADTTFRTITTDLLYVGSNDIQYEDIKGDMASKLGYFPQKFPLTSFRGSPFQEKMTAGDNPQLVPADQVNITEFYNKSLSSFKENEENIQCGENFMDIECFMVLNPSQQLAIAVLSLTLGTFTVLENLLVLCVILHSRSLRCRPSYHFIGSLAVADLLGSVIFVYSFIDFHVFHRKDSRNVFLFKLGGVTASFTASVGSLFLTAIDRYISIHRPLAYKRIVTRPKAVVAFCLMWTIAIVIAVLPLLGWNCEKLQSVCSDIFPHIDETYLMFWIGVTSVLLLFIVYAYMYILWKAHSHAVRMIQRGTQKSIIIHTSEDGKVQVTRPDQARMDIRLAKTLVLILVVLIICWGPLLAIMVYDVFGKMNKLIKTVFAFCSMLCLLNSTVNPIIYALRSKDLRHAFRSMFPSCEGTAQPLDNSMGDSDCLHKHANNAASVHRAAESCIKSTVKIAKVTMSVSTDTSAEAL
Sequence of 5-hydroxytryptamine receptor 2A (P28223 whole entry): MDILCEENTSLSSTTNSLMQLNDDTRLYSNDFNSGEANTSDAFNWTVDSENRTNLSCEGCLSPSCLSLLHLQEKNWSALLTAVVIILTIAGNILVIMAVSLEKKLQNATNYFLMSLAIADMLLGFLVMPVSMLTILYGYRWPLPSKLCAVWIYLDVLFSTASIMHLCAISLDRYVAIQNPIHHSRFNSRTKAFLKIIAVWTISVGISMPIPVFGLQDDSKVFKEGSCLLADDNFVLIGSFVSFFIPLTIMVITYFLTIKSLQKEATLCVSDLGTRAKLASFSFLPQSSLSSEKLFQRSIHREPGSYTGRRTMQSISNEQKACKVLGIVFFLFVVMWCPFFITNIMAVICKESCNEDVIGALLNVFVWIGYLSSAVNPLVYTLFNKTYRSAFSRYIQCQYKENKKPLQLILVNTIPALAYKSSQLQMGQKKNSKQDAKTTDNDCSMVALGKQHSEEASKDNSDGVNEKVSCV
Sequence of Sodium-dependent noradrenaline transporter (Homo sapiens) (P23975 whole entry): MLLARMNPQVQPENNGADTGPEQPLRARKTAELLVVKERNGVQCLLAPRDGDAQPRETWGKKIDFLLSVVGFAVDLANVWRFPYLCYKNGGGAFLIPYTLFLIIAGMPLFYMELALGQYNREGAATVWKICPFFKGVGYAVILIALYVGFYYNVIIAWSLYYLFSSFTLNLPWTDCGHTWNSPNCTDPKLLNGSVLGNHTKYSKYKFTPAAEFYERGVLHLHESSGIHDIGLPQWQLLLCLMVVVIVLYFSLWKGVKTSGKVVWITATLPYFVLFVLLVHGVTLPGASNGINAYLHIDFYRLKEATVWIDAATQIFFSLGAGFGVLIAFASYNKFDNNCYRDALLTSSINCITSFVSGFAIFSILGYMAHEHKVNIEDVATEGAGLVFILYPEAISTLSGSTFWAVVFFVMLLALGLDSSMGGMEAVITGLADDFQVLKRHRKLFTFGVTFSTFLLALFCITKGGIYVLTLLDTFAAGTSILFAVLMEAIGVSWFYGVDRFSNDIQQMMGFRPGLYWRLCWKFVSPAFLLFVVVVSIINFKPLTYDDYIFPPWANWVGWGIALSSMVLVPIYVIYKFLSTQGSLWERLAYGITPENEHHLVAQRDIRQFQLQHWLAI
Sequence of Delta-type opioid receptor (Homo sapiens) (P41143 whole entry): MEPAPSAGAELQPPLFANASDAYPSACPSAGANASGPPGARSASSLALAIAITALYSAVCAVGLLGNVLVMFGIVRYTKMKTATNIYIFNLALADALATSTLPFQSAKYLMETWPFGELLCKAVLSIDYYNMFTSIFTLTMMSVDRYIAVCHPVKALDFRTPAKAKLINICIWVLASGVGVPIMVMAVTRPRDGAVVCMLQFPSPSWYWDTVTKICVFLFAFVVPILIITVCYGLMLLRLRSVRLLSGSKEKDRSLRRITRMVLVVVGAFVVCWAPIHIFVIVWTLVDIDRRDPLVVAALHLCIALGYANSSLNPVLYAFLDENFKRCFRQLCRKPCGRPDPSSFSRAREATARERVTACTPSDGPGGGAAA
Sequence of Cholecystokinin receptor type A (Homo sapiens) (P32238 whole entry): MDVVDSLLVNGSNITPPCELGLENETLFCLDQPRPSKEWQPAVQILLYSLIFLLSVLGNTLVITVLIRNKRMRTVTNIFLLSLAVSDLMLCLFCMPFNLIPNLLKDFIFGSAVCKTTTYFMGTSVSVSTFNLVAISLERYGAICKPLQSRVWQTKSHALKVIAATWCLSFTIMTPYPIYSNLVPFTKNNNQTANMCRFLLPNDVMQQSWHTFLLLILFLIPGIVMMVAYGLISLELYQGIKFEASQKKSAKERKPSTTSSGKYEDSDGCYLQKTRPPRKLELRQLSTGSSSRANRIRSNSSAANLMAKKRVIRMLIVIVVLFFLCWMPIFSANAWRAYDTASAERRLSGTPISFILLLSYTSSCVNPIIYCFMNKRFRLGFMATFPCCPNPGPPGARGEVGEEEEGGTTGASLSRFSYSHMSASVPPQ
Sequence of Acetylcholinesterase (Homo sapiens) (P22303 whole entry): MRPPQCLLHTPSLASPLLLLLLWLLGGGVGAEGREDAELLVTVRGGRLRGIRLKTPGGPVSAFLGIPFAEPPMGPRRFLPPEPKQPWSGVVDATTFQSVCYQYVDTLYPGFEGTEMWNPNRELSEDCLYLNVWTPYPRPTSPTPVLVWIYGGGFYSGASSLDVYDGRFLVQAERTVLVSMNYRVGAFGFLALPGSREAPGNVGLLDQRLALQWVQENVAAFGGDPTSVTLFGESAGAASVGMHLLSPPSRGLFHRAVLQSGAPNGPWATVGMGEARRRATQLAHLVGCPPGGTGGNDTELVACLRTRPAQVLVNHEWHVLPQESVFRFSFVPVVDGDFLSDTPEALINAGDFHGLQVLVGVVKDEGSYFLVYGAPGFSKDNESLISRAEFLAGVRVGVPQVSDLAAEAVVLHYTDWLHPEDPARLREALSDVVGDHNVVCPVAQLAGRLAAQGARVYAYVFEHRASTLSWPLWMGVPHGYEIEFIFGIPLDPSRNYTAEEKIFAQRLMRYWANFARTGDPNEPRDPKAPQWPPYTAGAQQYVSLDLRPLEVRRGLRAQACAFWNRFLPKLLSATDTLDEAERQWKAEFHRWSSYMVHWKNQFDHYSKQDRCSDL
Sequence of Alpha-2B adrenergic receptor (Homo sapiens) (P18089 whole entry): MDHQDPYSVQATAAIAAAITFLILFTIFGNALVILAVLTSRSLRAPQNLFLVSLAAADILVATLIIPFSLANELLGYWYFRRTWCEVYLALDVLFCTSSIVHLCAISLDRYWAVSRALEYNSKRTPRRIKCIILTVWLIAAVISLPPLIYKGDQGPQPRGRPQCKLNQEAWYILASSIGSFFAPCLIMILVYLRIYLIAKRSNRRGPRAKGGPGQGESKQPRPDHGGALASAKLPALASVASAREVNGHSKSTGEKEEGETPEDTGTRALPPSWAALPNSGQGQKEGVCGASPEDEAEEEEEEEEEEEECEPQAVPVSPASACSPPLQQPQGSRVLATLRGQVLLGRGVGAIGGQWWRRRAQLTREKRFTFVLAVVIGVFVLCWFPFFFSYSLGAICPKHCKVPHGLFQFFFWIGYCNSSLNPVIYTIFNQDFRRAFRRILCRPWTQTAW
Sequence of Kappa-type opioid receptor (Homo sapiens) (P41145 whole entry): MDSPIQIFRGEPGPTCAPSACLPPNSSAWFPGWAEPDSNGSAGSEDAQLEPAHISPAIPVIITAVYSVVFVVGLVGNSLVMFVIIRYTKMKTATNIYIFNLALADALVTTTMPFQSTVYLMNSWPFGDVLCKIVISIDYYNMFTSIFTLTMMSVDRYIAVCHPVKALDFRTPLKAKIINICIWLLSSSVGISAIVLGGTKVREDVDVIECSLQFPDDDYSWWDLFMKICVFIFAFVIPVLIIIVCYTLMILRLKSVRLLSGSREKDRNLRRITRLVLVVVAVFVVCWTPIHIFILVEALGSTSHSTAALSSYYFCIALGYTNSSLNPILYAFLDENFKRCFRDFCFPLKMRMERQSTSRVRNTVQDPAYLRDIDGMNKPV
Sequence of Sodium- and chloride-dependent GABA transporter 1 (Homo sapiens) (P30531 whole entry, looked up): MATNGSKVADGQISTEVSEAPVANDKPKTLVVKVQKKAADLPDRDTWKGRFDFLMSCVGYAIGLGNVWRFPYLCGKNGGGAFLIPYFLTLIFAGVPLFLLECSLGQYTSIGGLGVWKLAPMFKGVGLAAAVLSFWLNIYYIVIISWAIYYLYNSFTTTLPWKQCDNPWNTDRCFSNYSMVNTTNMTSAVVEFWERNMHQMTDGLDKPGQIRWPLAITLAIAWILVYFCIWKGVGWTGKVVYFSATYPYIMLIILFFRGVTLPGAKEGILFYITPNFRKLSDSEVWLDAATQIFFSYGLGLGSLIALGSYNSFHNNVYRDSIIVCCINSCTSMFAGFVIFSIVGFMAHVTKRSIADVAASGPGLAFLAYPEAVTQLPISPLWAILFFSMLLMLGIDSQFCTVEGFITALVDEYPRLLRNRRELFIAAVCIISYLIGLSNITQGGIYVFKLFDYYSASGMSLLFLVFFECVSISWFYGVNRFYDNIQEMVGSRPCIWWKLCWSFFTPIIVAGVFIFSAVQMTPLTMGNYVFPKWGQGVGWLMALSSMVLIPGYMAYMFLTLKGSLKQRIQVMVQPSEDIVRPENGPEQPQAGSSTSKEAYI
Sequence of Histamine H4 receptor (Homo sapiens) (Q9H3N8 whole entry): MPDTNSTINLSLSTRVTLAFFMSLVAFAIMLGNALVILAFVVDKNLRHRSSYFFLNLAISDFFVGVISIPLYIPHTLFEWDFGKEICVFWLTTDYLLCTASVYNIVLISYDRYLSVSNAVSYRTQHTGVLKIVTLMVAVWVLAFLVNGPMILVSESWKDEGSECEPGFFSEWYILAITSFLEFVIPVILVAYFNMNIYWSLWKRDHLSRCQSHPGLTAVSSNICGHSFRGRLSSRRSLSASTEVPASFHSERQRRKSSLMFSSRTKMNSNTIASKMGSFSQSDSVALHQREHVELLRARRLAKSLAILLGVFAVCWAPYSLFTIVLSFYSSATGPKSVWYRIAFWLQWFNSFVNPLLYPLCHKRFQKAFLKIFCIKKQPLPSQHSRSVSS

O=C(Nc1cccnn1)N1CCC(=Cc2cccc(Oc3ccc(C(F)(F)F)cn3)c2)CC1
inhibition [1]: -4% | Ki (Cannabinoid receptor 1): 14 µM | inhibition (Cannabinoid receptor 1; Compound concentration 10.0 uM): 55% | inhibition [2]: -10% | inhibition [3]: 36% | inhibition [4]: 15% | inhibition [5]: 0% | Ki [6]: 1.6 µM | inhibition ([6]; Compound concentration 10.0 uM): 57% | inhibition [7]: -8% | inhibition at 10 µM [8]: 11% (not active) | inhibition at 10 µM [9]: 1% (not active) | inhibition [10]: -5% | inhibition [11]: -1% | inhibition [12]: 4% | inhibition [13]: 10% | inhibition [14]: 12.3% | inhibition [15]: 17.3% | inhibition [16]: 40%

O=C(Nc1cccnn1)N1CC(C/C=C/c2cncc(Oc3ccc(C(F)(F)F)cn3)n2)C1
inhibition [17]: 23.7%
